Results on two molecules are retold here after patent US20210177812A1, “METHODS OF SUPPRESSING MYELOID-DERIVED SUPPRESSOR CELLS IN PATIENTS” (MediciNova, Inc., priority 2018, published 2021).

“Also recorded” adds a separate entry of the source. Like-named read-outs stand apart in the source and are kept apart here.

Data set [1] concerns mouse model of glioma GL261. The data set can be described thus: Flow cytometry of MDSCs and T-cells in tumor, blood, spleen and bone marrow, mouse model of glioma GL261. It is filed as in vivo. The following applies: day 19; for monocytic MDSCs (M-MDSCs) in the tumor: ibudilast dosed 50 mg/kg i.p. daily from day 5 (AV1013 dose not given), vs vehicle. How it is done:
(§1) Ibudilast was tested in vivo using the mouse model of glioma GL261. Cells were implanted on day 0 and then a 5-day engrafiment period was used to ensure that the treatment being tested was performing by inhibiting tumor growth and not engraftment. After 5 days the mice were intraperitoneally injected daily with ibudilast at 50 mg/kg in a vehicle consisting of PEG 400 and (2-hydroxypropyl)-p-cyclodextrin to enhance solubility with low toxicity or alternatively mice were treated with AV1013. At day 19 post injection, 3 mice from each group (ibudilast, AV1013 or vehicle) were sacrificed for flow cytometry analysis of MDSCs, T-cells, and NK cells in the tumor, blood, spleen, and bone marrow.
(In general: Flow cytometry measures light scatter and fluorescence of single cells or particles in a stream.)

For the next data set, the system named is MDSCs. The data set can be described thus: T-cell proliferation in the presence of ibudilast-treated MDSCs from GL261/bone marrow co-culture. It is filed as cell-based, mouse. To be noted: CFSE-labeled CD3/28-activated splenic T-cells, 3 days with MDSCs; n=6 mice, 2 experiments, P=0.001. How it is done: (§2) MDSCs were prepared through a co-culture process illustrated in FIG. 1. Glioma cell line GL261 is cultured together with freshly isolated bone marrow for 4 days. During this 4-day process the glioma cell line initiates subsets of the naïve monocytes within the bone marrow to become both monocytic MDSCs (M-MDSCs) and granulocytic MDSCs (G-MDSCs) distinguished via flow cytometry using CD11b, Ly6C, and GR1. The GR1+ population was harvested at day 4 via magnetic bead separation. Once isolated the MDSCs were combined with freshly isolated splenic T-cells which were labeled with CFSE and activated using CD3/28 activation beads. The T-cell proliferation was then determined 3 days after being combined with MDSCs by measuring the fluorescence intensity of each CD3 T-cell after 3 days of being cultured with MDSCs (FIG. 2).

Data set [2] relates to mouse model of glioma GL261. The experiment in a line: Kaplan Meier survival analysis, mouse model of glioma GL261. It is filed as in vivo. To be noted: n=10 per group; vehicle median 19 days; Log Rank p=0.016. How it is done:
as §1
The median survival times for vehicle-treated mice (n=10) was 19 days whereas ibudilast-treated mice (n=10) were undetermined at this point (Log Rank p=0.016, […]) (FIG. 14).

For data set [3] the following is noted: in vivo, cited from earlier work.
The next data set concerns MCP-1. The experiment in a line: Serum cytokine analysis at day 19 of treated GL261 mice. It is filed as in vivo, mouse. The following applies: day 19, 3 animals per group. How it is done:
as §1

A further data set concerns M-MDSCs. The experiment in a line: MDSC generation in co-cultures with MIF inhibitors quantified by flow cytometry. It is filed as cell-based, mouse. To be noted: GL261/bone marrow co-culture. How it is done:
as §2

Data set [4] concerns MIF/CD74 signaling pathway. The data set can be described thus: mRNA expression of CD45+ cells isolated from vehicle- and ibudilast-treated tumors. It is filed as in vivo, mouse. The following applies: n=3 per group. How it is done:
as §1
Further analysis was conducted on the mRNA expression of CD45+ cells isolated from vehicle- and ibudilast-treated tumors.

The subject of the next data set is GL261. The data set can be described thus: In vitro treatment of co-culture for 24 h, MCP-1 (CCL2) secretion. It is filed as cell-based, mouse. The following applies: co-culture treated 24 h in vitro.

Take `CC(N)C(=O)c1c(C(C)C)nn2ccccc12` (centres unmarked) [AV1013]: in data set [1], the “monocytic MDSCs (M-MDSCs) in the tumor” value is listed as “no significant suppression”.

Regarding `CC(C)C(=O)c1c(C(C)C)nn2ccccc12` [ibudilast, 3-isobutyryl-2-isopropylpyrazolo(1,5-a)pyridine], the “suppressive abilities of MDSCs on T-cell proliferation” value in the data set on MDSCs is given as “effectively reduced the suppressive abilities of MDSCs”. In data set [2], the survival versus vehicle result is “Significant survival advantages”. For the same molecule, the “CNS distribution / penetration” value in data set [3] is recorded as “good CNS penetration”. Besides, the “CNS distribution / penetration” value in data set [3] (listed as Ibudilast) was “distributes well to the CNS”. Besides, the “serum MCP-1 level” value in the data set on MCP-1 is on record as “reduction”. Also, in data set [1] (50 mg/kg i.p. daily, FIG. 7), the “CD8 T-cells” value is reported as “decreased”. Besides, in data set [1] (50 mg/kg i.p. daily, FIG. 8), the “CD4 T-cells” value is on record as “increased”. In addition, the “monocytic MDSCs (M-MDSCs) in the blood” value in data set [1] (blood, 50 mg/kg i.p. daily from day 5, 50 mg/kg) was “not altered; also recorded: not M-MDSCs associated with blood, spleen or bone marrow”. For the same molecule, the “monocytic MDSCs (M-MDSCs) in the marrow” value in data set [1] (bone marrow, 50 mg/kg i.p. daily from day 5, 50 mg/kg) is recorded as “not altered; also recorded: not M-MDSCs associated with blood, spleen or bone marrow”. The “monocytic MDSCs (M-MDSCs) in the spleen” value in data set [1] (spleen, 50 mg/kg i.p. daily from day 5, 50 mg/kg) is “not altered; also recorded: not M-MDSCs associated with blood, spleen or bone marrow”. For the same molecule, in data set [1] (tumor vs blood, marrow, spleen, 50 mg/kg i.p. daily), the “immune suppressive T-regulatory cells” value is recorded as “reduced only in the tumors”. For the same molecule, the “monocytic MDSCs (M-MDSCs) in the tumor” value in data set [1] (50 mg/kg) is “reduced; also recorded: reduces M-MDSCs associated with tumor”. Further, the M-MDSC generation result in the data set with M-MDSCs is on record as “ability to reduce M-MDSC generation”. Besides, in data set [4], the “CCR2 mRNA expression” value is recorded as “significantly reduced”, the “CD74 mRNA expression” value was “significantly reduced”, the “MCP-1 (CCL2) mRNA expression” value is “significantly reduced” and the “MIF mRNA expression” value is “not reduced”. For the same molecule, the “myeloid genes mRNA expression” value in data set [4] is recorded as “Overall reductions”. The “secretion of MCP-1 (CCL2)” value in the data set on GL261 is listed as “reduced GLP261 secretion MCP-1 (CCL2) in a dose-dependent manner; also recorded: reduced GL261 secretion of MCP-1(ccl2) in a dose dependent manner”.
